Measurements published in paper PMC6025191, “Heteronemin, a Marine Sesterterpenoid-Type Metabolite, Induces Apoptosis in Prostate LNcap Cells via Oxidative and ER Stress Combined with the Inhibition of Topoisomerase II and Hsp90” (Marine Drugs, 2018).

Target: T1, topoisomerase IIα (Homo sapiens, UniProt P11388)
T1 construct: gene TOP2A
Assay: cell-free DNA cleavage assay with pHOT1 plasmid ([…], induction of linear DNA)
Type: biochemical

T1 sequence (P11388 whole entry): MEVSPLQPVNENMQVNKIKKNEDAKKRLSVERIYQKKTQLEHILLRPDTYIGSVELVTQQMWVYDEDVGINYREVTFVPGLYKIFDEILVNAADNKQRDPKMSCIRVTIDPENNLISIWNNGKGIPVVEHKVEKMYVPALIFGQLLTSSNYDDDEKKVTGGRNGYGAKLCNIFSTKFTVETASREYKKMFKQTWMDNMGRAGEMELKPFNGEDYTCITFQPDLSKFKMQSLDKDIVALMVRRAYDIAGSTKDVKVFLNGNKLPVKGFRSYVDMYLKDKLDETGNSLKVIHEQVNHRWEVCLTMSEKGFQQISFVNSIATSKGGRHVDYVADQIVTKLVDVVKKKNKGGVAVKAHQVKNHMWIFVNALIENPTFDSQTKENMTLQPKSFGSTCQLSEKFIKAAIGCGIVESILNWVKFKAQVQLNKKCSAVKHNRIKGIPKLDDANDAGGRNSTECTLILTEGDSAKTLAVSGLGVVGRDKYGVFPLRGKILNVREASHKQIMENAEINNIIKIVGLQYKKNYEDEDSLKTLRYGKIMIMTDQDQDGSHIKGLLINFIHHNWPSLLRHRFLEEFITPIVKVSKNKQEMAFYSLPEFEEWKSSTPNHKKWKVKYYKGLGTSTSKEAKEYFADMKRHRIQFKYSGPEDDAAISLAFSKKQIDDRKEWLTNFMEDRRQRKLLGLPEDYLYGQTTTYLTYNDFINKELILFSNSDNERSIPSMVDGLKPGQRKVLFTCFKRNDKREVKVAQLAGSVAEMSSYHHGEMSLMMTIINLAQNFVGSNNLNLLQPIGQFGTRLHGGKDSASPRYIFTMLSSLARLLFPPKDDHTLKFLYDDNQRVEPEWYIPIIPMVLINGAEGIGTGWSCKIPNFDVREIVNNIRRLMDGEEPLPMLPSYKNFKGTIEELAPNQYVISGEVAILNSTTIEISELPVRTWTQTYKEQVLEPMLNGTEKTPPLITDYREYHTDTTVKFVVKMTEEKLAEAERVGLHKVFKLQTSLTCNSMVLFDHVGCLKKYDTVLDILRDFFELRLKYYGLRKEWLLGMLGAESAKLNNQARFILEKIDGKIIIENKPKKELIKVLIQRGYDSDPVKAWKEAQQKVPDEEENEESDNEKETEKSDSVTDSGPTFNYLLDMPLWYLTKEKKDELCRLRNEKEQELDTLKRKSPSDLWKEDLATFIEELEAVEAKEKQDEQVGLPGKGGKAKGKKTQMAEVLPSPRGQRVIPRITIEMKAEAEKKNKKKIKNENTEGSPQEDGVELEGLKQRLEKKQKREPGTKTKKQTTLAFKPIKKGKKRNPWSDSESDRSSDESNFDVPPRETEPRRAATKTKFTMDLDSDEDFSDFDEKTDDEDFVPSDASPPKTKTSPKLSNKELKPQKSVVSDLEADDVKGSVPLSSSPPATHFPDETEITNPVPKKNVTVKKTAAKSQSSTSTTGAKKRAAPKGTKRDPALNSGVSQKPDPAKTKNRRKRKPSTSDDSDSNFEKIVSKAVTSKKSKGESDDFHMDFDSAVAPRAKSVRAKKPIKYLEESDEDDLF

COc1cc([C@@H]2c3cc4c(cc3[C@@H](O[C@@H]3O[C@@H]5CO[C@@H](C)O[C@H]5[C@H](O)[C@H]3O)[C@H]3COC(=O)[C@H]23)OCO4)cc(OC)c1O [etoposide]
cell-free DNA cleavage assay with pHOT1 plasmid (500 μM, induction of linear DNA): A linear DNA strand was observed upon treating the supercoiled pHOT1 plasmid DNA with etoposide, a standard topo II poison
